Reference: the NIST ThermoML archive (doi:10.1007/s10765-014-1730-1)

Conditions: Vibrating tube method; for mass density: Liquid; for specific volume: Gas

F/C=C\C(F)(F)F [(Z)-1,3,3,3-tetrafluoro-1-propene]
Conditions	mass density [kg/m3]	specific volume [m3/kg]
283.15 K, 19923 kPa	1312.8	–
283.15 K, 30988 kPa	1335.2	–
283.16 K, 188 kPa	1262.2	–
283.16 K, 714 kPa	1263.9	–
283.16 K, 1728 kPa	1266.9	–
283.16 K, 2742 kPa	1270	–
283.16 K, 3759 kPa	1273	–
283.16 K, 4785 kPa	1275.9	–
283.16 K, 5794 kPa	1278.6	–
283.16 K, 6808 kPa	1281.4	–
283.16 K, 7810 kPa	1284.1	–
283.16 K, 8829 kPa	1286.8	–
283.16 K, 9831 kPa	1289.3	–
283.16 K, 10842 kPa	1291.8	–
283.16 K, 11848 kPa	1294.3	–
283.16 K, 12862 kPa	1296.7	–
283.16 K, 13869 kPa	1299.3	–
283.16 K, 14880 kPa	1301.5	–
283.16 K, 15887 kPa	1304	–
283.16 K, 16901 kPa	1306.2	–
283.16 K, 17911 kPa	1308.5	–
283.16 K, 18920 kPa	1310.8	–
283.16 K, 20928 kPa	1315.1	–
283.16 K, 21929 kPa	1317.3	–
283.16 K, 22938 kPa	1319.3	–
283.16 K, 23940 kPa	1321.4	–
283.16 K, 24945 kPa	1323.4	–
283.16 K, 25950 kPa	1325.4	–
283.16 K, 26964 kPa	1327.4	–
283.16 K, 27969 kPa	1329.6	–
283.16 K, 28981 kPa	1331.5	–
283.16 K, 29981 kPa	1333.4	–
283.16 K, 32001 kPa	1337.1	–
283.16 K, 33010 kPa	1339	–
283.16 K, 34026 kPa	1340.8	–
293.14 K, 707 kPa	1238	–
293.14 K, 3747 kPa	1248.2	–
293.14 K, 6783 kPa	1257.5	–
293.14 K, 8789 kPa	1263.5	–
293.14 K, 21891 kPa	1296.5	–
293.14 K, 22907 kPa	1298.7	–
293.14 K, 23918 kPa	1301	–
293.14 K, 24927 kPa	1303.2	–
293.14 K, 31982 kPa	1317.6	–
293.15 K, 202 kPa	1236.1	–
293.15 K, 1711 kPa	1241.3	–
293.15 K, 2717 kPa	1244.8	–
293.15 K, 4772 kPa	1251.4	–
293.15 K, 5777 kPa	1254.5	–
293.15 K, 7789 kPa	1260.4	–
293.15 K, 9806 kPa	1266.1	–
293.15 K, 10808 kPa	1269.1	–
293.15 K, 11817 kPa	1271.7	–
293.15 K, 12827 kPa	1274.3	–
293.15 K, 13836 kPa	1277	–
293.15 K, 14850 kPa	1279.6	–
293.15 K, 15856 kPa	1282.1	–
293.15 K, 16856 kPa	1284.7	–
293.15 K, 17859 kPa	1287	–
293.15 K, 18869 kPa	1289.6	–
293.15 K, 19873 kPa	1292	–
293.15 K, 20882 kPa	1294.3	–
293.15 K, 25932 kPa	1305.2	–
293.15 K, 26941 kPa	1307.2	–
293.15 K, 27957 kPa	1309.7	–
293.15 K, 28963 kPa	1311.6	–
293.15 K, 29972 kPa	1313.7	–
293.15 K, 30977 kPa	1315.7	–
293.15 K, 32993 kPa	1319.5	–
293.15 K, 33996 kPa	1321.6	–
303.15 K, 82.1 kPa	–	0.259
303.15 K, 113.7 kPa	–	0.185
303.15 K, 184.2 kPa	–	0.111
303.15 K, 190.7 kPa	–	0.107
303.15 K, 1705 kPa	1215.3	–
303.15 K, 3735 kPa	1222.8	–
303.15 K, 4759 kPa	1226.3	–
303.15 K, 7774 kPa	1236.5	–
303.15 K, 8779 kPa	1239.7	–
303.15 K, 10782 kPa	1245.9	–
303.15 K, 12803 kPa	1251.9	–
303.15 K, 13813 kPa	1254.8	–
303.15 K, 14822 kPa	1257.6	–
303.15 K, 15833 kPa	1260.3	–
303.15 K, 16844 kPa	1263	–
303.15 K, 17858 kPa	1265.7	–
303.15 K, 18870 kPa	1268.3	–
303.15 K, 19882 kPa	1270.9	–
303.15 K, 20888 kPa	1273.4	–
303.15 K, 21903 kPa	1275.9	–
303.15 K, 22911 kPa	1278.3	–
303.15 K, 23920 kPa	1280.7	–
303.15 K, 24935 kPa	1283	–
303.15 K, 25951 kPa	1285.4	–
303.15 K, 26951 kPa	1287.7	–
303.15 K, 27967 kPa	1289.9	–
303.15 K, 28968 kPa	1292.1	–
303.15 K, 29985 kPa	1294.3	–
303.15 K, 30991 kPa	1296.4	–
303.15 K, 31993 kPa	1298.6	–
303.15 K, 32995 kPa	1300.6	–
303.15 K, 34000 kPa	1302.7	–
303.16 K, 217 kPa	1209.4	–
303.16 K, 692 kPa	1211.4	–
303.16 K, 2712 kPa	1219.1	–
303.16 K, 5769 kPa	1229.9	–
303.16 K, 6772 kPa	1233.2	–
303.16 K, 9780 kPa	1242.9	–
303.16 K, 11794 kPa	1249	–
308.15 K, 83.4 kPa	–	0.259
308.15 K, 115.8 kPa	–	0.185
308.15 K, 187.8 kPa	–	0.111
308.15 K, 194.6 kPa	–	0.107
308.15 K, 215.4 kPa	–	0.095
313.15 K, 84.9 kPa	–	0.259
313.15 K, 117.9 kPa	–	0.185
313.15 K, 191.5 kPa	–	0.111
313.15 K, 198.5 kPa	–	0.107
313.15 K, 325 kPa	1182	–
313.15 K, 777 kPa	1184	–
313.15 K, 1789 kPa	1188.5	–
313.15 K, 2791 kPa	1192.7	–
313.15 K, 3819 kPa	1196.9	–
313.15 K, 4846 kPa	1201.1	–
313.15 K, 5847 kPa	1204.9	–
313.15 K, 6862 kPa	1208.7	–
313.15 K, 7865 kPa	1212.3	–
313.15 K, 8867 kPa	1215.8	–
313.15 K, 9876 kPa	1219.3	–
313.15 K, 10884 kPa	1222.7	–
313.15 K, 11896 kPa	1226	–
313.15 K, 12909 kPa	1229.2	–
313.15 K, 13913 kPa	1232.4	–
313.15 K, 14924 kPa	1235.4	–
313.15 K, 15924 kPa	1238.4	–
313.15 K, 16925 kPa	1241.4	–
313.15 K, 17931 kPa	1244.2	–
313.15 K, 18933 kPa	1247	–
313.15 K, 19934 kPa	1249.8	–
313.15 K, 20940 kPa	1252.5	–
313.15 K, 21945 kPa	1255.1	–
313.15 K, 22953 kPa	1257.8	–
313.15 K, 23961 kPa	1260.4	–
313.15 K, 24962 kPa	1262.9	–
313.15 K, 25963 kPa	1265.3	–
313.15 K, 26966 kPa	1267.7	–
313.15 K, 27968 kPa	1270.1	–
313.15 K, 28969 kPa	1272.5	–
313.15 K, 29976 kPa	1274.8	–
313.15 K, 30978 kPa	1277	–
313.15 K, 31986 kPa	1279.3	–
313.15 K, 32992 kPa	1281.6	–
313.15 K, 34000 kPa	1283.8	–
313.16 K, 219.8 kPa	–	0.095
315.15 K, 270.7 kPa	–	0.076
318.15 K, 86.3 kPa	–	0.26
318.15 K, 120 kPa	–	0.185
318.15 K, 195.2 kPa	–	0.111
318.15 K, 202.2 kPa	–	0.107
318.15 K, 224 kPa	–	0.095
320.15 K, 276.3 kPa	–	0.076
323.14 K, 4763 kPa	1174.1	–
323.14 K, 16843 kPa	1218.6	–
323.14 K, 21889 kPa	1233.7	–
323.14 K, 29946 kPa	1254.9	–
323.14 K, 30956 kPa	1257.3	–
323.15 K, 87.8 kPa	–	0.26
323.15 K, 122.1 kPa	–	0.185
323.15 K, 198.9 kPa	–	0.111
323.15 K, 206 kPa	–	0.107
323.15 K, 228.3 kPa	–	0.095
323.15 K, 363.2 kPa	–	0.057
323.15 K, 392 kPa	1153.1	–
323.15 K, 686 kPa	1154.6	–
323.15 K, 1702 kPa	1159.8	–
323.15 K, 2712 kPa	1164.7	–
323.15 K, 3731 kPa	1169.5	–
323.15 K, 5778 kPa	1178.4	–
323.15 K, 6786 kPa	1182.7	–
323.15 K, 7786 kPa	1186.7	–
323.15 K, 8786 kPa	1190.6	–
323.15 K, 9791 kPa	1194.4	–
323.15 K, 10796 kPa	1198.2	–
323.15 K, 11803 kPa	1201.8	–
323.15 K, 12805 kPa	1205.3	–
323.15 K, 13812 kPa	1208.8	–
323.15 K, 14822 kPa	1212.1	–
323.15 K, 15831 kPa	1215.4	–
323.15 K, 17849 kPa	1221.7	–
323.15 K, 18857 kPa	1224.9	–
323.15 K, 19866 kPa	1227.9	–
323.15 K, 20875 kPa	1230.8	–
323.15 K, 22900 kPa	1236.5	–
323.15 K, 23908 kPa	1239.3	–
323.15 K, 24908 kPa	1242	–
323.15 K, 25914 kPa	1244.6	–
323.15 K, 26926 kPa	1247.3	–
323.15 K, 27933 kPa	1249.8	–
323.15 K, 28945 kPa	1252.4	–
323.15 K, 31966 kPa	1259.8	–
323.15 K, 32979 kPa	1262.2	–
323.15 K, 33992 kPa	1264.5	–
325.15 K, 281.9 kPa	–	0.076
328.15 K, 89.2 kPa	–	0.26
328.15 K, 124.1 kPa	–	0.185
